In publication PMC9395490, “An open-label, crossover study to compare different formulations and evaluate effect of food on pharmacokinetics of pimitespib in patients with advanced solid tumors” (Investigational New Drugs, 2022):
Like-named read-outs stand apart in the source and are kept apart here.

Columns and labels:
[1] = PK evaluation period, Cohort 1: single dose of Formulation A vs Formulation B under fasting conditions (crossover); assay type: in vivo, patients with advanced solid tumors
Protocol: This clinical, pharmacological, multicenter study was conducted in Japan and consisted of two cohorts (Cohorts 1 and 2) and two periods. The patients were first assigned to the pharmacokinetic evaluation period to investigate PK parameters of each formulation (Cohort 1) or the effect of food (Cohort 2), and then to the consecutive administration period (Supplementary Fig. 1).
In both cohorts, a randomized cross-over design was used.
For fasting conditions, patients were required to fast at least 10 h before dosing and at least 4 h after dosing and abstain from drinking water 1 h before and after administration, excluding the water consumed at the time of dosing. For fed conditions, patients were required to fast for at least 10 h before dosing and at least 4 h after dosing (except for the scheduled study meal) and abstain from drinking for 1 h before and after administration, except for drinking water. The study drug was administered within 30 min of completing the meal. The study meal was a high-fat (approximately 50% of the total caloric content of the meal) and high-calorie (572–715 kcal) meal considering the weight ratio of Japanese to American individuals. The meal’s nutritional value was adjusted based on the body weight of Japanese patients according to the US FDA standard guidance. It was recommended that study drug dosing be done with 100–200 (usually 150) mL of water.
Patients underwent hematologic, coagulation, biochemical laboratory examinations, urinalysis, electrocardiogram, ophthalmologic examination, and vital sign and body weight assessments. Blood collection occurred before pimitespib administration and at 0.5, 1, 2, 4, 6, 8, 10, 24, and 48 h after administration at the first and second doses.
For Cohort 1 analyses, the values of the natural log-transformed PK parameters (Cmax, AUClast, AUCinf, terminal elimination rate constant [λz], and mean residence time) were analyzed using analysis of variance (ANOVA), using Phoenix® WinNonlin® Ver. 8.1. […] The time to maximum plasma concentration (tmax) was not transformed and was analyzed using Wilcoxon’s signed-rank test, conducted using EXSUS version 10.0.3. The significance level was set at 5%.

[2] = PK evaluation period, Cohort 2: food effect, single dose of Formulation A under fed vs fasting conditions (crossover); assay type: in vivo, patients with advanced solid tumors
Protocol: For fasting conditions, patients were required to fast at least 10 h before dosing and at least 4 h after dosing and abstain from drinking water 1 h before and after administration, excluding the water consumed at the time of dosing. For fed conditions, patients were required to fast for at least 10 h before dosing and at least 4 h after dosing (except for the scheduled study meal) and abstain from drinking for 1 h before and after administration, except for drinking water. The study drug was administered within 30 min of completing the meal. The study meal was a high-fat (approximately 50% of the total caloric content of the meal) and high-calorie (572–715 kcal) meal considering the weight ratio of Japanese to American individuals. […]
For the analyses related to Cohort 2, the ANOVA model included treatment (fasting and fed conditions), treatment period, and treatment sequence as fixed effects, and patients nested within treatment sequence as a random effect. The GMR and 90% CI of the fed condition to the fasting condition were calculated.

[3] = tested on: patients with advanced solid tumors; parameters: method as in PMID 30679388; conditions: phase I; cited from earlier work
[4] = tested on: patients with advanced GIST; parameters: method as in PMID 31536852; conditions: phase II, advanced GIST failed or intolerant to imatinib, sunitinib, regorafenib; cited from earlier work
[5] = tested on: patients with advanced GIST; parameters: method as in doi:10.1200/JCO.2021.39.15_suppl.11524; conditions: phase III, cited from earlier work

## CCc1cc(C(N)=O)ccc1-n1nc(C(C)C)c2c(-n3cnc(-c4cnn(C)c4)c3)ccnc21 [pimitespib, Pimitespib]
[1]
  inter-subject CV% for AUCinf: 54.4%
  inter-subject CV% for AUClast: 52.6%
  inter-subject CV% for Cmax: 63.8%
  intra-subject CV% for AUCinf: 24.9%
  intra-subject CV% for AUClast: 24.4%
  intra-subject CV% for Cmax: 28.5%
[2]
  AUC under fed conditions, fold higher than under fasting conditions: ~1.6 fold
  Cmax under fed conditions, fold higher than under fasting conditions: approximately 1.9 fold
[3]
  patients with GIST achieving a partial response: one
  patients with non-small cell lung cancer achieving a partial response: two
[4]
  median PFS: 4.4 months
[5]; advanced GIST refractory or intolerant to imatinib, sunitinib, regorafenib
  median PFS: 2.8 months
[5]; pimitespib vs placebo
  hazard ratio (HR) for PFS: 0.51
